Results taken from ChEMBL document CHEMBL3991601, “The target landscape of clinical kinase drugs” (Science, 2017).
pKd: −log10 of the molar value. Active and inactive are the calls of the source.

Tests used:
[1] = target: Adenylate kinase 2, mitochondrial (Homo sapiens, UniProt P54819)
[2] = target: T1, DNA replication licensing factor MCM4 (Homo sapiens, UniProt P33991)
T1 sequence (P33991 whole entry): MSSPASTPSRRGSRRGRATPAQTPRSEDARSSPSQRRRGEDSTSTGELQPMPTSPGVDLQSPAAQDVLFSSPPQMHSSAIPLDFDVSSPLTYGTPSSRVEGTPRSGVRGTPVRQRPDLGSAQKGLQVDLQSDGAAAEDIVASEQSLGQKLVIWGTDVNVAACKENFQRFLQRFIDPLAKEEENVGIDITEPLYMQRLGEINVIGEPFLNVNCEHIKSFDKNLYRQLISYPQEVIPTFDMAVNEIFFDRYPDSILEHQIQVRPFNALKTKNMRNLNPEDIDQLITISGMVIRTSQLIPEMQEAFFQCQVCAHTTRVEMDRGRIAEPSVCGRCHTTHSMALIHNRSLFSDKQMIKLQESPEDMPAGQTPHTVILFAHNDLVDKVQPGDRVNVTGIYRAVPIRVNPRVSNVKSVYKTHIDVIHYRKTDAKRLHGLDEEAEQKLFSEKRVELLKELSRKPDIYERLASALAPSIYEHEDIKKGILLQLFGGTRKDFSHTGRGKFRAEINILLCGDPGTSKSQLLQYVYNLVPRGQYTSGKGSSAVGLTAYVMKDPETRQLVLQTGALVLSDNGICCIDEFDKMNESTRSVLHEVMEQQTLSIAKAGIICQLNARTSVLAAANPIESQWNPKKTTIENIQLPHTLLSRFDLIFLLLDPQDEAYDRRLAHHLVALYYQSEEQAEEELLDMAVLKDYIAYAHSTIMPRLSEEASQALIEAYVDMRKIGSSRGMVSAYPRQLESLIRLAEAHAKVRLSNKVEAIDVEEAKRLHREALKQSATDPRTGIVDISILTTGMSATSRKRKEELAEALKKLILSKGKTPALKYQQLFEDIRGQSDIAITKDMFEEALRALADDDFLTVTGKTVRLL

[3] = target: Ribosomal protein S6 kinase alpha-4 (Homo sapiens, UniProt O75676)
[4] = target: T2, Mitogen-activated protein kinase kinase kinase 6 (Homo sapiens, UniProt O95382)
T2 sequence (O95382 whole entry): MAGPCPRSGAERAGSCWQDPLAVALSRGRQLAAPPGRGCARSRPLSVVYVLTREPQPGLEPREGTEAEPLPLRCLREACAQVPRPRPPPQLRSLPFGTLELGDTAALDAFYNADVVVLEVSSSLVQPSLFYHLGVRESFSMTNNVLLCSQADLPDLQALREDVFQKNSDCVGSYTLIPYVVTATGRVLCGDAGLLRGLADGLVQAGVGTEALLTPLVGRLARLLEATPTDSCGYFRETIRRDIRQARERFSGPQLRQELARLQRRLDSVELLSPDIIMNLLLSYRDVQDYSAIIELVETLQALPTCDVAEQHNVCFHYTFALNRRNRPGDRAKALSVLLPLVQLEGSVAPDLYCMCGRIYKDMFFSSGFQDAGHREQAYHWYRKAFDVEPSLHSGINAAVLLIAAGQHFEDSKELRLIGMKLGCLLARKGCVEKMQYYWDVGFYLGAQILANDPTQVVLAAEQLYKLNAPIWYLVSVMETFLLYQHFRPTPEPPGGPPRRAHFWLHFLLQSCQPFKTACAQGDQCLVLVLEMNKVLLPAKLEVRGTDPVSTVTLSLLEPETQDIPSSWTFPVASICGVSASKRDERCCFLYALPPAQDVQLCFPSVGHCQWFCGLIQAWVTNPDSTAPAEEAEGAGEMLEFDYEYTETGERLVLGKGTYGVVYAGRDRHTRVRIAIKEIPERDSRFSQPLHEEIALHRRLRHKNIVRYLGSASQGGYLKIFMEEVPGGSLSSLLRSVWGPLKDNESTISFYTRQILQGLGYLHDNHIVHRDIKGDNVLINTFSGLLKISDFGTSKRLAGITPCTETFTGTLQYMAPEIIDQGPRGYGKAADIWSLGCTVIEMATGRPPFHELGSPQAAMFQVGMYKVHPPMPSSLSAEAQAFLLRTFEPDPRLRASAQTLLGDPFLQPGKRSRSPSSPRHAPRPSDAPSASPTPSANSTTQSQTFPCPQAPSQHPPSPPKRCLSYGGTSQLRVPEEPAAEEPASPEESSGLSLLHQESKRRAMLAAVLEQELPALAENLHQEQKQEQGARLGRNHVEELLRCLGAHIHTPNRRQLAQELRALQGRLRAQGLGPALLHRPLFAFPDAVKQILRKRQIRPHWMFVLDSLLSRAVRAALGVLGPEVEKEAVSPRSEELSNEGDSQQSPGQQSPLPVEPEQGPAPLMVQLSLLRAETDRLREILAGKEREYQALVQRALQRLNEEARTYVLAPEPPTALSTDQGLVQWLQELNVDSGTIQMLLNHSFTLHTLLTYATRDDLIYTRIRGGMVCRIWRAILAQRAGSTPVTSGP

[5] = target: Mitogen-activated protein kinase 9 (Homo sapiens, UniProt P45984)
[6] = target: Ephrin type-A receptor 2 (Homo sapiens, UniProt P29317)
[7] = target: Tyrosine-protein kinase Lyn (Homo sapiens, UniProt P07948)
[8] = target: Tyrosine-protein kinase Fer (Homo sapiens, UniProt P16591)
Further: in the data inactive means no Kd found up to 30 µM.

Sequence of Ephrin type-A receptor 2 (P29317 whole entry): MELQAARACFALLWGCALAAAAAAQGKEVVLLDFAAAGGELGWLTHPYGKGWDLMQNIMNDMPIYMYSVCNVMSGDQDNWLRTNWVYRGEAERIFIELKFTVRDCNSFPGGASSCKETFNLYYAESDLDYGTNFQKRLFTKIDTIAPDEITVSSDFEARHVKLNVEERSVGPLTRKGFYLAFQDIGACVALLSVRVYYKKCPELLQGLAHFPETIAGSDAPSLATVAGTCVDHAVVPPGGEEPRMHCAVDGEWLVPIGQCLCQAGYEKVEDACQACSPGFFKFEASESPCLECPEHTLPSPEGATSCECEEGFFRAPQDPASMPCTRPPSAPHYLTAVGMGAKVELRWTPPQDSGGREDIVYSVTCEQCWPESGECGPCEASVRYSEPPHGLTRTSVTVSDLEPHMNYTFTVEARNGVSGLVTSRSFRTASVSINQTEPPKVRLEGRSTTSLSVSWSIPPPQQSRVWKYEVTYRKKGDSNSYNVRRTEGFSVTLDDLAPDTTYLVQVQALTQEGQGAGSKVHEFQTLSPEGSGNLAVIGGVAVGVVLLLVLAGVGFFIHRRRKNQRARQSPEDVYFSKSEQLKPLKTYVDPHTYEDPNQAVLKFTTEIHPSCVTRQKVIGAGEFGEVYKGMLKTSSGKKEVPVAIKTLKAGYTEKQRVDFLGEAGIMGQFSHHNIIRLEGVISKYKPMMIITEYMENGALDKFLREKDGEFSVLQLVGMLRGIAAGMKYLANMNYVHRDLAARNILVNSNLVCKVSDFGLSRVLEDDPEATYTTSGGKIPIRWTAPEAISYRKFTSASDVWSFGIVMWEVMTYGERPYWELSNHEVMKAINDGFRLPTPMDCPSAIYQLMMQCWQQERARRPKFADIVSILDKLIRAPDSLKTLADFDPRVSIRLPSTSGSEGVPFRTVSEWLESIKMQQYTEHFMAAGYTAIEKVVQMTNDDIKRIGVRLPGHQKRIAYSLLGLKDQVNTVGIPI
Sequence of Tyrosine-protein kinase Lyn (P07948 whole entry): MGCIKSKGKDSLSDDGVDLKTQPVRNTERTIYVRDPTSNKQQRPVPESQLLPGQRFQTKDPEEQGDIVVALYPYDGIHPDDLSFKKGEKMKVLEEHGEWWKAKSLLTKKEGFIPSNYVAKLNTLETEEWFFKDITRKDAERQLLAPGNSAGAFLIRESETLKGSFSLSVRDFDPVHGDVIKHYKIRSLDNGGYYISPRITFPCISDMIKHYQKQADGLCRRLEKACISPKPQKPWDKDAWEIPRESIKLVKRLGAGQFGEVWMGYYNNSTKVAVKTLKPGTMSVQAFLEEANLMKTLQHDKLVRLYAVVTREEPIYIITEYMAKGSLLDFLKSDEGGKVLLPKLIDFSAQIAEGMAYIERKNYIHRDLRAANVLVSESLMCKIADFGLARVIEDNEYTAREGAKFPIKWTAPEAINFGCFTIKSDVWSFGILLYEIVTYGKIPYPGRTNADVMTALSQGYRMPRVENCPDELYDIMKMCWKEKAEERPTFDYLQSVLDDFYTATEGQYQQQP
Sequence of Tyrosine-protein kinase Fer (P16591 whole entry): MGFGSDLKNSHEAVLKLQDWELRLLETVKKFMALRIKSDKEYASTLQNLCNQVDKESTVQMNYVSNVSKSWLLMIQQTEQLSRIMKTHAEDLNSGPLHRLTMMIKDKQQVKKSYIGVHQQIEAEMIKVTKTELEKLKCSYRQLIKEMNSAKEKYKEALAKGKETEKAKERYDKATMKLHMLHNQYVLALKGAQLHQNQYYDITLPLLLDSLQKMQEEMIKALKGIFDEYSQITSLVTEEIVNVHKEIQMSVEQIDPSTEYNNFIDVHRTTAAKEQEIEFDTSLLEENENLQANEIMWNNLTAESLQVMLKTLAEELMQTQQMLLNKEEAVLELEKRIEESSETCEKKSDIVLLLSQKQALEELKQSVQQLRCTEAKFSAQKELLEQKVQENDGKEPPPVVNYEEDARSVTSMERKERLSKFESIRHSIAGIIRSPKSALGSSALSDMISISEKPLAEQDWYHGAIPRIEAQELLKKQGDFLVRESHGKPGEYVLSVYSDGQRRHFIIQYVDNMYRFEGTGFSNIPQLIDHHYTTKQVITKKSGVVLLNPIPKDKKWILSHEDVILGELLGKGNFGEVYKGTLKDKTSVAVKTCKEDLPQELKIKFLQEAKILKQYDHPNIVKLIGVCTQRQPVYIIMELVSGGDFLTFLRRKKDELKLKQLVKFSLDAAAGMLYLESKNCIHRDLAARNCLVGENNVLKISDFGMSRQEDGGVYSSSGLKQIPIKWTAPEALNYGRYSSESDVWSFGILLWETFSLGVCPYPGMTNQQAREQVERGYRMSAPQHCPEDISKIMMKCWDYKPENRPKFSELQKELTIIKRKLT
Sequence of Mitogen-activated protein kinase 9 (P45984 whole entry): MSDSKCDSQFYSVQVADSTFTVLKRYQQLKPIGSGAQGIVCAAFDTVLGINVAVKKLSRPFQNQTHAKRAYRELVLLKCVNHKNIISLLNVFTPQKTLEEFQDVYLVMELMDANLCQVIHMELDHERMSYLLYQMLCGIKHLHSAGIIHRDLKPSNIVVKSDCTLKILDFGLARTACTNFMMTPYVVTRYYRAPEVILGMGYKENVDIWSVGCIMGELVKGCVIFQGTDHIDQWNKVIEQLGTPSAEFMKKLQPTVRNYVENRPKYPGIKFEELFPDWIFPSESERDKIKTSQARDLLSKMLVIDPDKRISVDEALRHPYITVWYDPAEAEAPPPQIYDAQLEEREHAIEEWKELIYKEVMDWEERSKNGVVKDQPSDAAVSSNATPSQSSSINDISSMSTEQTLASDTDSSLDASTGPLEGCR
Sequence of Ribosomal protein S6 kinase alpha-4 (O75676 whole entry): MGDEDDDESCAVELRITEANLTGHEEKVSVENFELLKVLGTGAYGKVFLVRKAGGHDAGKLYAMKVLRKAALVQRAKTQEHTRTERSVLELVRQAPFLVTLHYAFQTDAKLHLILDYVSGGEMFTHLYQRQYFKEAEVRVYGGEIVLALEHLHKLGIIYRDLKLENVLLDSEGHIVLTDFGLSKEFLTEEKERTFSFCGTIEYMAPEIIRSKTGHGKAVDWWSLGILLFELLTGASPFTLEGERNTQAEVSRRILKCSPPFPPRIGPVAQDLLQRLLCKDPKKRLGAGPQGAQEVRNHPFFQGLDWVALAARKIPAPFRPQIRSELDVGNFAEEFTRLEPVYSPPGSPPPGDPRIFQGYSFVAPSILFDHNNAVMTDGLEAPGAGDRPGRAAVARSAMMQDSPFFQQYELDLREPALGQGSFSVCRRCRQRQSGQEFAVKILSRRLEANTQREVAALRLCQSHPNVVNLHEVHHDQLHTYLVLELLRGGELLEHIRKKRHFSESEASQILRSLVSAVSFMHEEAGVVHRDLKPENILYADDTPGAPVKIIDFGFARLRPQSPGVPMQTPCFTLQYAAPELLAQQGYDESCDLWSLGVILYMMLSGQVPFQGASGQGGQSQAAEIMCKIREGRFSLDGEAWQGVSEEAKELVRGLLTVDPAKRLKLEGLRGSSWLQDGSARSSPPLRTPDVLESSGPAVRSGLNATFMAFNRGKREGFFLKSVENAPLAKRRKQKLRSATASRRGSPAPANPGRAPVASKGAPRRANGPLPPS

| SMILES | Kd [1] | Kd [2] | Kd [3] | Kd [4] | Kd [7] | Kd [8] | pKd [2] | Kd [5] | Kd [6] | pKd [3] |
| --- | --- | --- | --- | --- | --- | --- | --- | --- | --- | --- |
| Cn1cc(C2=C(c3cn(C4CCN(Cc5ccccn5)CC4)c4ccccc34)C(=O)NC2=O)c2ccccc21 [ENZASTAURIN] | > 30 µM (inactive) | > 30 µM (inactive) |  |  |  |  |  |  |  |  |
| CC(=O)c1cnc2ccc(-c3cc(Cl)c(O)c(Cl)c3)nc2c1N[C@H]1CC[C@H](CN(C)C)CC1 | > 30 µM (inactive) | > 30 µM (inactive) | 0.111 µM (active) | 1.91 µM (active) | 0.121 µM (active) |  |  | 0.364 µM (active) | 0.11 µM (active) |  |
| CC(C)(C)c1nc(-c2cccc(NS(=O)(=O)c3c(F)cccc3F)c2F)c(-c2ccnc(N)n2)s1 [DABRAFENIB] | > 30 µM (inactive) | > 30 µM (inactive) |  | > 30 µM (inactive) |  | > 30 µM (inactive) |  |  | > 30 µM (inactive) |  |
| COc1cc(Nc2ncc3c(n2)-c2ccc(Cl)cc2C(c2c(F)cccc2OC)=NC3)ccc1C(=O)O [ALISERTIB] | > 30 µM (inactive) |  |  | > 30 µM (inactive) | > 30 µM (inactive) |  | 6.20 |  |  |  |
| N#CC[C@H](C1CCCC1)n1cc(-c2ncnc3[nH]ccc23)cn1 [RUXOLITINIB] | > 30 µM (inactive) | > 30 µM (inactive) |  |  |  |  |  |  |  |  |
| CC(=O)NCC(=O)N1[C@@H]2CC[C@H]1c1ccc(Nc3ncc(C(F)(F)F)c(NC4CCC4)n3)cc12 [PF-03814735] | > 30 µM (inactive) | > 30 µM (inactive) | 0.156 µM (active) | 1.06 µM (active) | > 30 µM (inactive) |  |  |  |  |  |
| Cc1nc(Nc2n[nH]c3c2CN(C(=O)N[C@H](CN(C)C)c2ccccc2)C3(C)C)c2sccc2n1 [PF-03758309] | > 30 µM (inactive) | > 30 µM (inactive) |  | > 30 µM (inactive) | > 30 µM (inactive) | 0.802 µM (active) |  | > 30 µM (inactive) | > 30 µM (inactive) |  |
| Cc1[nH]c(/C=C2\C(=O)Nc3ccccc32)c(C)c1CCC(=O)O [ORANTINIB] | > 30 µM (inactive) | > 30 µM (inactive) | 1.39 µM (active) | > 30 µM (inactive) |  |  |  |  |  |  |
| CNC(=O)c1ccccc1Sc1ccc2c(/C=C/c3ccccn3)n[nH]c2c1 [AXITINIB] | > 30 µM (inactive) | > 30 µM (inactive) |  |  |  |  |  |  |  |  |
| CNC(=O)c1cc(Oc2ccc(NC(=O)Nc3cc(C(C)(C)C)nn3-c3ccc4ncccc4c3)c(F)c2)ccn1 [REBASTINIB] | > 30 µM (inactive) |  |  | > 30 µM (inactive) |  |  |  | 0.98 µM (active) | > 30 µM (inactive) | 4.89 |
| NC(=O)Nc1cc(-c2cccc(F)c2)sc1C(=O)N[C@H]1CCCNC1 [AZD-7762] | > 30 µM (inactive) | > 30 µM (inactive) | 0.879 µM (active) | > 30 µM (inactive) | 0.48 µM (active) |  |  | > 30 µM (inactive) | > 30 µM (inactive) |  |
| O=C(Nc1c[nH]nc1-c1nc2cc(CN3CCOCC3)ccc2[nH]1)NC1CC1 [AT-9283] | > 30 µM (inactive) | > 30 µM (inactive) |  | > 30 µM (inactive) |  |  |  | 0.509 µM (active) |  |  |

Now from value to compound, other results behind:

| Kd [1] | Kd [2] | Kd [3] | Kd [4] | Kd [7] | Kd [8] | pKd [2] | SMILES | Kd [5] | Kd [6] | pKd [3] |
| --- | --- | --- | --- | --- | --- | --- | --- | --- | --- | --- |
| > 30 µM (inactive) | > 30 µM (inactive) | > 30 µM (inactive) | > 30 µM (inactive) | > 30 µM (inactive) | > 30 µM (inactive) |  | CCn1cc(-c2ccnc3[nH]c(-c4cccc(CN(C)C)c4)cc23)c(-c2ccc(NC(=O)N(C)C)cc2)n1 [GSK-1070916] |  | > 30 µM (inactive) |  |
| > 30 µM (inactive) | > 30 µM (inactive) | > 30 µM (inactive) | > 30 µM (inactive) | 0.771 µM (active) | 0.98 µM (active) |  | COc1cc2ncnc(Oc3cccc(NC(=O)Nc4cc(C(C)(C)C(F)(F)F)on4)c3)c2cc1OC [CEP-32496] | 0.148 µM (active) |  |  |
| > 30 µM (inactive) | > 30 µM (inactive) |  |  |  |  |  | C[C@@H](Oc1cc(-n2cnc3ccc(CN4CCN(C)CC4)cc32)sc1C(N)=O)c1ccccc1C(F)(F)F [GSK-461364] |  |  |  |
| > 30 µM (inactive) | > 30 µM (inactive) |  |  |  |  |  | O=C(NOCCO)c1cc(CN2OCCCC2=O)c(F)c(F)c1Nc1ccc(I)cc1F [RO-4987655] |  |  |  |
| > 30 µM (inactive) | > 30 µM (inactive) |  | > 30 µM (inactive) |  |  |  | NC(=O)c1c(OCc2c(F)cc(Br)cc2F)nsc1NC(=O)NCCCCN1CCCC1 [OSI-632] |  |  |  |
